Source: patent US20240024291A1, “Uses of Dihydroorotate Dehydrogenase Inhibitors” (University of Maryland, Baltimore, priority 2022, published 2024)

Key:
[1] = test system: 1079 glioblastoma neurosphere line; assay: CellTiter-Glo in vitro proliferation assay; format: cell-based; settings: Homo sapiens
Method: (§1) A Biospherix X3, hypoxic incubation system, was maintained at 37° C., 1% 02, 5% CO2, and 94% N2 (Biospherix, Ltd—Parish, NY) to conduct in vitro hypoxic experiments. Cells were plated, then incubated in normoxia overnight before transferring the culture dishes to hypoxia for the duration indicated in the main text.
(§2) Glioblastoma neurosphere lines were plated in 96-well plates at 25,000 cells per well in […] of media and treated with compound 1 in the presence or absence of 100 μM uridine. Cell Titer-Glo® Luminescent Cell Viability Assay (Promega, Madison, WI, USA) was performed 72 hours after treatment. Luminescence was determined using a Cytation 5 reader and Gen5 software package (BioTek, Winooski, VT, USA).
(§3) The compound's efficacy was examined against a collection of genetically diverse patient-derived GSC lines in vitro. The IC50 profiles of compound 1 in the seven GSC lines tested were established using the CellTiter-Glo® reagent and calculated with GraphPad software.

[2] = test system: 3691 glioblastoma neurosphere line; assay: CellTiter-Glo in vitro proliferation assay; format: cell-based; settings: Homo sapiens, 72 h, 3691 (table prints 3639)
Method: as §1, §2, §3

[3] = test system: Mayo15 glioblastoma neurosphere line; assay: CellTiter-Glo in vitro proliferation assay; format: cell-based; settings: Homo sapiens
Method: as §1, §2, §3

[4] = test system: Mayo39 glioblastoma neurosphere line; assay: CellTiter-Glo in vitro proliferation assay; format: cell-based; settings: Homo sapiens
Method: as §1, §2, §3

[5] = test system: Mayo6 glioblastoma neurosphere line; assay: CellTiter-Glo in vitro proliferation assay; format: cell-based; settings: Homo sapiens
Method: as §1, §2, §3

[6] = test system: 913 PIP-FUCCI reporter cells; assay: PIP-FUCCI in vitro cell cycle assay; format: cell-based, human; settings: for percentage of cells in the S phase: 48 hours (DMSO 20%)
Method: To monitor cell cycle progression, 913 glioblastoma neurosphere-derived cells expressing pLenti-PGK-Neo-PIP-FUCCI were first cloned. pLenti-PGK-Neo-PIP-FUCCI was from Jean Cook (Addgene plasmid #118616; n2t.net/addgene:118616; RRID:Addgene_118616) (52). Cells were then treated with either 0, 10 nM, or 100 nM compound 1 for 48 hours, stained with 1 mg/mL Hoechst for 2 hours, and visualized by direct fluorescence microscopy. A twenty-four-hour treatment with […] of the DNA replication inhibitor Aphidicolin was used as a positive control for S-phase arrest. A collection of five images per well, each set containing at least 10,000 cells, was captured for each treatment. Each treatment was performed in technical quadruplicates, and each experiment was repeated twice on different days. Images were acquired using Cytation 5 plate reader (BioTek, Winooski, VT, USA) and scored using Gen5 software. Cell cycle phases were determined by x/y plot of mVenus and mCherry intensities per nucleus and gating boundaries on the Aphidicolin control.
It has been reported that depletion of pyrimidine nucleotides leads to incomplete DNA replication and elicits a stress response that blocks cell cycle progression. […] The original design was developed in 2008 by Miyawaki and colleagues (51).

[7] = test system: 08-387 neurosphere line transduced with EGFRvIll or GFP; assay: Resistance assay, EGFRvIll or GFP transduced cells; format: cell-based, human; set-up: dose or concentration left out as unconfirmed
Method: (§4) Ten thousand 08-387 or 913 glioblastoma cells per well were seeded in a 96 well plate. Post 24 hr plating, 08-387 and 913 cells were treated with a varying dosage of compound 1 or with a varying dosage of gemcitabine alone or with 100 nM of compound 1. Post 72 hr of treatment, cell viability was calculated on Alamar blue absorbance reading.
(§5) The pLV[Expressior]-mCherry:T2A:Hygro-EF1A>Luc2 (Addgene Plasmid #174665) and pLV[Exp]-Bsd-EFS>EGFRvIll:T2A:TurboGFP (Addgene Plasmid #189841) lentivirus plasmids were designed by us and constructed by VectorBuilder. These plasmids are available at Addgene.
(§6) To further evaluate the potential role of EGFR in compound 1 resistance, the 913 and 08-387 neurosphere lines were transduced with lentiviruses encoding EGFRvIll or GFP (as control) and these neurospheres were challenged with a relatively high dose of 1 mM compound 1.

[8] = test system: 913 neurosphere line transduced with EGFRvIll or GFP; assay: Resistance assay, EGFRvIll or GFP transduced cells; format: cell-based, human; set-up: dose or concentration left out as unconfirmed
Method: as §4, §5, §6

[9] = test system: 08-387 orthotopic xenografts; assay: Orthotopic glioblastoma xenograft, drug treatment; format: in vivo
Method: (§7) Experiments with animals were performed in compliance with institutional guidelines and regulations. Four- to six-week-old male and female NCG mice (NOD-Prkdcem26Cd52112rgem26Cd22/NjuCrl, Charles River Laboratory, Wilmington, MA) were used in all experiments in approximately equal numbers of each sex in each experimental group. The 08-387 m-Cherry Luciferase or 913 Luciferase expressing cells (1×10 5) were stereotactically injected into the right striatum as previously described (30). Two weeks after the injection of the cells, tumor growth was monitored with bioluminescence imaging using an IVIS Spectrum imaging system equipped with the Living Image software package (Perkin Elmer). Male and female mice harboring orthotopic xenografts with Radiance (p/sec/cm2/sr) equal to or greater than 1x10 6 were randomly assigned to the control or compound 1 treatment groups. Mice were dosed daily by oral gavage with either vehicle (90/10 Kollisolv® PEG400/EtOH solution) or 3 mg/kg compound 1. Animal weight was monitored daily, and mice were sacrificed when they became symptomatic.
(§8) To generate equivalent treatment groups and facilitate the tracking of xenograft growth, these cells were transduced with a mCherry:Luciferase reporter. An equal number of male and female immunodeficient mice were injected, and overall survival was the primary endpoint. Mice were imaged weekly starting two weeks after the injection and then randomized to the two treatment groups when tumor Radiance surpassed 1x10 6 photons/sec/cm^2/sr (sr=units of solid angle or steradian). Compound 1 (3 mg/kg) or vehicle were delivered daily by oral gavage.

[10] = test system: 913 orthotopic xenografts; assay: Orthotopic glioblastoma xenograft, drug treatment; format: in vivo
Method: as §7, §8

With `CCn1c(CO)nn(-c2cc(O[C@@H](C)C(F)(F)F)c(C(=O)Nc3c(F)cccc3Cl)cc2F)c1=O` [Compound 1, N-(2-chloro-6-fluorophenyl)-4-[4-ethyl-4,5-dihydro-3-(hydroxymethyl)-5-oxo-1H-1,2,4-triazol-1-yl]-5-fluoro-2-[(1S)-2,2,2-trifluoro-1-methylethoxy]-benzamide] the IC50 [1]; 1079 was 1.2 µM, the IC50 ([1]; 72 h, 1079, hypoxia, 72 hours) was 23.7 µM and the IC50 ([1]; 72 h, 1079, normoxia, 72 hours) was 1.2 µM. The IC50 ([2]; hypoxia) was 0.0122 µM, the IC50 ([2]; normoxia) was 0.0074 µM and the IC50 ([3]; 72 h, Mayo15, hypoxia) was 146 µM. It also gave an IC50 ([3]; 72 h, Mayo15, normoxia) of 64 µM, an IC50 ([3]; Mayo15) of 64 µM and an IC50 ([4]; 72 h, Mayo39, hypoxia) of 153 µM. For the same compound, the IC50 ([4]; 72 h, Mayo39, normoxia) was 182 µM, the IC50 ([4]; Mayo39) was 182 µM and the IC50 ([5]; 72 h, Mayo6, hypoxia) was 228 µM. The IC50 ([5]; 72 h, Mayo6, normoxia) was 164 µM, the IC50 ([5]; Mayo6) was 164 µM and the “percentage of cells in the S phase” value ([6]; 10 nM) was 70%. For the same compound, the “percentage of cells in the S phase” value ([6]; 100 nM) was 64%, the “cell cycle effects with uridine supplementation” value ([6]; uridine supplementation) was “completely blocked” and the surviving cell fraction ([7]; 08-387 EGFRvIll) was 36.7%. The surviving cell fraction ([7]; 08-387 GFP (control)) was 4%, the surviving cell fraction ([8]; 913 EGFRvIll) was 55.2% and the surviving cell fraction ([8]; 913 GFP (control)) was 27.9%. The “tumor radiance compared to controls” value ([9]; 08-387, week 1, 3 mg/kg daily oral) was “roughly the same”, the “tumor radiance lower compared to controls” value ([9]; 08-387, week 2, 3 mg/kg daily oral) was 47% and the “tumor radiance lower compared to controls” value ([9]; 08-387, week 3, 3 mg/kg daily oral) was 75%. The “body weight / tolerability” value ([9]; 08-387 xenograft mice, 3 mg/kg daily oral gavage) was “no significant weight loss”, the “median survival from initiation of treatment” value ([9]; 08-387 xenografts, 3 mg/kg daily oral (vehicle 12 days)) was 19 days and the “increase in median survival” value ([9]; 08-387 xenografts, vs vehicle) was 58%. For the same compound, the “tumor radiance lower than in vehicle controls” value (“tumor radiance lower than” for short) ([10]; 913, week 1, 3 mg/kg daily oral) was 6.5%, the “tumor radiance lower than” value ([10]; 913, week 2, 3 mg/kg daily oral) was 41% and the “tumor radiance lower than” value ([10]; 913, week 3, 3 mg/kg daily oral) was 52%. The “body weight / tolerability” value ([10]; 913 xenograft mice, 3 mg/kg daily oral gavage) was “no significant weight loss”, the “median survival from initiation of treatment” value ([10]; 913 xenografts, 3 mg/kg daily oral (vehicle 32 days)) was 41 days and the “increase in median survival” value ([10]; 913 xenografts, vs vehicle) was 28%.
